From US9474790B2, “Stable, protracted GLP-1/glucagon receptor co-agonists for medical use” (Novo Nordisk A/S, priority 2013, dated 2016)
Numbered stars: 1 amine (or outer) side, 2 acyl side, 3 side chain; on linkers, the order of the positions; unused ones are H or OH. Bridge positions count the residues as written; N and C are the ends. Square brackets hold non-standard residues; d marks the D form. Side chains are listed from the residue outwards. Peptide text beside a SMILES is read from it. I, II: the chains in the order shown. * marks the point of attachment. C18 diacid = O=C(O)CCCCCCCCCCCCCCCCC(=O)*; γGlu = O=C(O)[C@H](CCC(=O)[*:2])N[*:1]; Ac4c = NC1(C(=O)O)CCC1; AEEA = NCCOCCOCC(=O)O; Aib = CC(C)(N)C(=O)O

Legend:
[1] = Thioflavin T (ThT) fibrillation assay for physical stability; assay type: physicochemical; conditions: 250 μM in 10 mM HEPES buffer, pH 7.5, 37° C., shaking 960 rpm
In short: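 Peptide at 250 μM in 10 mM HEPES pH 7.5 with 1 μM ThT, at 37° C with 960 rpm orbital shaking. Fluorescence (ex 444/em 485 nm) read every 20 min after 10 min pre-incubation; sigmoidal fit gives lag time (t0−2τ) and kapp (1/τ). Recovery is RP-HPLC peptide in the centrifuged, 0.22 μm-filtered supernatant as % of initial.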

[2] = Chemical stability assessment by RP-UPLC; assay type: physicochemical; conditions: 333 μM, 8 mM phosphate buffer pH 7.3, 37° C. vs 5° C.
In short: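 Purity loss = (purity after 14 days at 5° C. minus that at 37° C.) relative to the 5° C. value, purity being main-peak area % by RP-UPLC with UV at 215 nm. Samples were 333 μM in 8 mM phosphate, pH 7.3; gradient adjusted for outlying retention times.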

SMILES | THT assay Lag time (Ex. 76) [1] [h] | Purity loss; 14 days at 37° C. [2] [%]
CC(C)C[C@H](NC(=O)[C@H](CC(C)C)NC(=O)[C@H](Cc1c[nH]c2ccccc12)NC(=O)[C@H](CCC(N)=O)NC(=O)[C@@H](NC(=O)[C@H](Cc1ccccc1)NC(=O)[C@H](CCC(=O)O)NC(=O)[C@H](CCCNC(=N)N)NC(=O)[C@H](C)NC(=O)[C@H](CCCNC(=N)N)NC(=O)[C@H](CCCNC(=N)N)NC(=O)[C@H](CO)NC(=O)[C@H](CC(=O)O)NC(=O)[C@H](CC(C)C)NC(=O)[C@H](Cc1ccc(O)cc1)NC(=O)[C@H](CCCCN)NC(=O)[C@H](CO)NC(=O)[C@H](CC(C)C)NC(=O)[C@H](CC(=O)O)NC(=O)[C@H](CO)NC(=O)[C@@H](NC(=O)[C@H](Cc1ccccc1)NC(=O)[C@@H](NC(=O)CNC(=O)[C@H](CCC(N)=O)NC(=O)C(C)(C)NC(=O)[C@@H](N)Cc1c[nH]cn1)[C@@H](C)O)[C@@H](C)O)C(C)C)C(=O)N[C@@H](CC(N)=O)C(=O)N[C@@H](CCCCNC(=O)CC[C@H](NC(=O)CC[C@H](NC(=O)COCCOCCNC(=O)COCCOCCNC(=O)CC[C@H](NC(=O)CCCCCCCCCCCCCCCCC(=O)O)C(=O)O)C(=O)O)C(=O)O)C(N)=O [Example 12, N^ε29-[(4S)-4-carboxy-4-[[(4S)-4-carboxy-4-[[2-[2-[2-[[2-[2-[2-[[(4S)-4-carboxy-4-(17-carboxyheptadecanoylamino)butanoyl]amino]ethoxy]ethoxy]acetyl]amino]ethoxy]ethoxy]acetyl]amino]butanoyl]amino]butanoyl]-[Aib2,Leu10,Arg20,Glu21,Leu27,Lys29]-Glucagon amide] (H-H[Aib]QGTFTSDLSKYLDSRRAREFVQWLLNK([γGlu-γGlu-AEEA-AEEA-γGlu-C18 diacid])-NH2) | 45 | 8
CC(C)C[C@H](NC(=O)[C@H](Cc1ccc(O)cc1)NC(=O)[C@H](CCCCN)NC(=O)[C@H](CO)NC(=O)[C@H](CC(C)C)NC(=O)[C@H](CC(=O)O)NC(=O)[C@H](CO)NC(=O)[C@@H](NC(=O)[C@H](Cc1ccccc1)NC(=O)[C@@H](NC(=O)CNC(=O)[C@H](CCC(N)=O)NC(=O)C1(NC(=O)[C@@H](N)Cc2c[nH]cn2)CCC1)[C@@H](C)O)[C@@H](C)O)C(=O)N[C@@H](CCC(=O)O)C(=O)N[C@@H](CO)C(=O)N[C@@H](CCCCN)C(=O)N[C@@H](CCCNC(=N)N)C(=O)N[C@@H](C)C(=O)N[C@@H](CCCNC(=N)N)C(=O)N[C@@H](CCC(=O)O)C(=O)N[C@@H](Cc1ccccc1)C(=O)N[C@H](C(=O)N[C@@H](CCC(N)=O)C(=O)N[C@@H](Cc1c[nH]c2ccccc12)C(=O)N[C@@H](CC(C)C)C(=O)N[C@@H](CC(C)C)C(=O)N[C@@H](CCCCNC(=O)CC[C@H](NC(=O)CC[C@H](NC(=O)[C@H](CO)NC(=O)[C@H](CCC(=O)O)NC(=O)[C@H](CO)NC(=O)CC[C@H](NC(=O)CC[C@H](NC(=O)CCCCCCCCCCCCCCCCC(=O)O)C(=O)O)C(=O)O)C(=O)O)C(=O)O)C(=O)N[C@H](C(N)=O)[C@@H](C)O)C(C)C [Example 68, N^ε28-[(4S)-4-carboxy-4-[[(4S)-4-carboxy-4-[[(2S)-2-[[(2S)-4-carboxy-2-[[(2S)-2-[[(4S)-4-carboxy-4-[[(4S)-4-carboxy-4-(17-carboxyheptadecanoylamino)butanoyl]amino]butanoyl]amino]-3-hydroxypropanoyl]amino]butanoyl]amino]-3-hydroxypropanoyl]amino]butanoyl]amino]butanoyl]-[Acb2,Leu10,Glu15,Lys17,Arg20,Glu21,Leu27,Lys28]-Glucagon amide] (H-H[Ac4c]QGTFTSDLSKYLESKRAREFVQWLLK([γGlu-γGlu-Ser-Glu-Ser-γGlu-γGlu-C18 diacid])T-NH2; N-terminus assumed) | 45 | 3
CC(C)C[C@H](NC(=O)[C@H](Cc1ccc(O)cc1)NC(=O)[C@H](CCCCN)NC(=O)[C@H](CO)NC(=O)[C@H](CC(C)C)NC(=O)[C@H](CC(=O)O)NC(=O)[C@H](CO)NC(=O)[C@@H](NC(=O)[C@H](Cc1ccccc1)NC(=O)[C@@H](NC(=O)CNC(=O)[C@H](CCC(N)=O)NC(=O)C(C)(C)NC(=O)[C@@H](N)Cc1c[nH]cn1)[C@@H](C)O)[C@@H](C)O)C(=O)N[C@@H](CCC(=O)O)C(=O)N[C@@H](CO)C(=O)N[C@@H](CCCNC(=N)N)C(=O)N[C@@H](CCCNC(=N)N)C(=O)N[C@@H](C)C(=O)N[C@@H](CCCNC(=N)N)C(=O)N[C@@H](CCC(=O)O)C(=O)N[C@@H](Cc1ccccc1)C(=O)N[C@H](C(=O)N[C@@H](CCC(N)=O)C(=O)N[C@@H](Cc1c[nH]c2ccccc12)C(=O)N[C@@H](CC(C)C)C(=O)N[C@@H](CC(C)C)C(=O)N[C@@H](CCCCNC(=O)CC[C@H](NC(=O)CC[C@H](NC(=O)COCCOCCNC(=O)COCCOCCNC(=O)CC[C@H](NC(=O)CC[C@H](NC(=O)CCCCCCCCCCCCCCCCC(=O)O)C(=O)O)C(=O)O)C(=O)O)C(=O)O)C(=O)N[C@H](C(N)=O)[C@@H](C)O)C(C)C [Example 60, N^ε28-[(4S)-4-carboxy-4-[[(4S)-4-carboxy-4-[[2-[2-[2-[[2-[2-[2-[[(4S)-4-carboxy-4-[[(4S)-4-carboxy-4-(17-carboxyheptadecanoylamino)butanoyl]amino]butanoyl]amino]ethoxy]ethoxy]acetyl]amino]ethoxy]ethoxy]acetyl]amino]butanoyl]amino]butanoyl]-[Aib2,Leu10,Glu15,Arg20,Glu21,Leu27,Lys28]-Glucagon amide] (H-H[Aib]QGTFTSDLSKYLESRRAREFVQWLLK([γGlu-γGlu-AEEA-AEEA-γGlu-γGlu-C18 diacid])T-NH2; N-terminus assumed) | 45 | 4
CC(C)C[C@H](NC(=O)[C@H](Cc1ccc(O)cc1)NC(=O)[C@H](CCCCN)NC(=O)[C@H](CO)NC(=O)[C@H](CC(C)C)NC(=O)[C@H](CC(=O)O)NC(=O)[C@H](CO)NC(=O)[C@@H](NC(=O)[C@H](Cc1ccccc1)NC(=O)[C@@H](NC(=O)CNC(=O)[C@H](Cc1c[nH]cn1)NC(=O)C(C)(C)NC(=O)[C@@H](N)Cc1c[nH]cn1)[C@@H](C)O)[C@@H](C)O)C(=O)N[C@@H](CCC(=O)O)C(=O)N[C@@H](CO)C(=O)N[C@@H](CCCCN)C(=O)N[C@@H](CCCNC(=N)N)C(=O)N[C@@H](C)C(=O)N[C@@H](CCCNC(=N)N)C(=O)N[C@@H](CCC(=O)O)C(=O)N[C@@H](Cc1ccccc1)C(=O)N[C@H](C(=O)N[C@@H](CCC(N)=O)C(=O)N[C@@H](Cc1c[nH]c2ccccc12)C(=O)N[C@@H](CC(C)C)C(=O)N[C@@H](CC(C)C)C(=O)N[C@@H](CCCCNC(=O)CC[C@H](NC(=O)CC[C@H](NC(=O)COCCOCCNC(=O)COCCOCCNC(=O)CC[C@H](NC(=O)CCCCCCCCCCCCCCCCC(=O)O)C(=O)O)C(=O)O)C(=O)O)C(=O)N[C@H](C(N)=O)[C@@H](C)O)C(C)C [Example 27, N^ε28-[(4S)-4-carboxy-4-[[(4S)-4-carboxy-4-[[2-[2-[2-[[2-[2-[2-[[(4S)-4-carboxy-4-(17-carboxyheptadecanoylamino)butanoyl]amino]ethoxy]ethoxy]acetyl]amino]ethoxy]ethoxy]acetyl]amino]butanoyl]amino]butanoyl]-[Aib2,His3,Leu10,Glu15,Lys17,Arg20,Glu21,Leu27, Lys28]-Glucagon amide] (H-H[Aib]HGTFTSDLSKYLESKRAREFVQWLLK([γGlu-γGlu-AEEA-AEEA-γGlu-C18 diacid])T-NH2; N-terminus assumed) | 42 | 5
CC(C)C[C@H](NC(=O)[C@H](CC(=O)O)NC(=O)[C@H](CC(C)C)NC(=O)[C@H](Cc1ccc(O)cc1)NC(=O)[C@H](CCCCN)NC(=O)[C@H](CO)NC(=O)[C@H](CC(C)C)NC(=O)[C@H](CC(=O)O)NC(=O)[C@H](CO)NC(=O)[C@@H](NC(=O)[C@H](Cc1ccccc1)NC(=O)[C@@H](NC(=O)CNC(=O)[C@H](CCC(N)=O)NC(=O)C1(NC(=O)[C@@H](N)Cc2c[nH]cn2)CCC1)[C@@H](C)O)[C@@H](C)O)C(=O)N[C@@H](CCCCN)C(=O)N[C@@H](CCCNC(=N)N)C(=O)N[C@@H](C)C(=O)N[C@@H](CCCNC(=N)N)C(=O)N[C@@H](CCC(=O)O)C(=O)N[C@@H](Cc1ccccc1)C(=O)N[C@H](C(=O)N[C@@H](CCC(N)=O)C(=O)N[C@@H](Cc1c[nH]c2ccccc12)C(=O)N[C@@H](CC(C)C)C(=O)N[C@@H](CC(C)C)C(=O)N[C@@H](CCCCNC(=O)CNC(=O)[C@H](CO)NC(=O)[C@H](CCC(=O)O)NC(=O)CNC(=O)[C@H](CO)NC(=O)CC[C@H](NC(=O)CC[C@H](NC(=O)CCCCCCCCCCCCCCCCC(=O)O)C(=O)O)C(=O)O)C(=O)N[C@H](C(N)=O)[C@@H](C)O)C(C)C [Example 48] (I: H-H[Ac4c]QGTFTSDLSKYLDLKRAREFVQWLLKT-NH2 / II: {C18 diacid-γGlu-γGlu}-SGESG; amide I:28-II:C; N-terminus assumed) | 45 | 2
